Reference: PMC6328429, “Synthesis of a benzoxazinthione derivative of tanaproget and pharmacological evaluation for PET imaging of PR expression” (EJNMMI Radiopharmacy and Chemistry, 2019)

How the values were obtained:
[1] = biological target: T1, progesterone receptor (PR) (Homo sapiens, UniProt P06401); assay: T47D alkaline phosphatase (AP) potency assay; type: cell-based
T1 construct: endogenous in cells; host or cells: T47D breast carcinoma cells
T1 sequence (P06401 1-933): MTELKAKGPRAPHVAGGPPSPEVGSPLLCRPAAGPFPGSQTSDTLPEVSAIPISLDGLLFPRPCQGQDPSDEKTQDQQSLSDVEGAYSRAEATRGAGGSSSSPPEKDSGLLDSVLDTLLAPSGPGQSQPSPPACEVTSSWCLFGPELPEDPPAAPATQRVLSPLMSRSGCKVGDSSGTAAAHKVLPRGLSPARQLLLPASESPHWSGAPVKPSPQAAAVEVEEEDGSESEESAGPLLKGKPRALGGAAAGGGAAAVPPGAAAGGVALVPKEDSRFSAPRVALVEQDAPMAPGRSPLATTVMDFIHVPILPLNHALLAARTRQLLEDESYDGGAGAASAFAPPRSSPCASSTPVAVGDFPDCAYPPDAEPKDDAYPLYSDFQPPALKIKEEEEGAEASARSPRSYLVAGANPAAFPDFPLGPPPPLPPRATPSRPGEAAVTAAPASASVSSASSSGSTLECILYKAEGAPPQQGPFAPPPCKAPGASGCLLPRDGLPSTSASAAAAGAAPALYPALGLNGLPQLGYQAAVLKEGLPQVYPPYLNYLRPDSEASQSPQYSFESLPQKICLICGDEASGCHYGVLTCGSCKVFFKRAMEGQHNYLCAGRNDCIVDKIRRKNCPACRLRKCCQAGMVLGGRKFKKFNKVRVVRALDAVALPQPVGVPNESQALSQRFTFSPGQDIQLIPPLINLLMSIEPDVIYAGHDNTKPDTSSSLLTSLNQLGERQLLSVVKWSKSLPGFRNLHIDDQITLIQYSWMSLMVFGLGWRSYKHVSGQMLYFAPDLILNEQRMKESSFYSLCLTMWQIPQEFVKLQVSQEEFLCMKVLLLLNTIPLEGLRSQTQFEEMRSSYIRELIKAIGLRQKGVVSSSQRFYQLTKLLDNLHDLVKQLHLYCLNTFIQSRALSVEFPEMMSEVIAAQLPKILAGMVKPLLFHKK
Description: The method described by Di Lorenzo et al was followed with minor adaptation (Di Lorenzo et al., [1991]). In brief, T47D breast carcinoma cells were seeded in 96-well plates at 50,000 cell/well in RPMI medium supplemented with 10% FBS. After overnight culture, the medium was changed to RPMI phenol red free containing 2% charcoal-stripped FBS. After 24 h, the cells were treated with progesterone (Sigma Aldrich, Gillingham, UK) or the library compounds. Progesterone and the test compounds were dissolved in DMSO (100%) and diluted into treatment medium to give a final DMSO (v/v) concentration of 0.1%. After incubation (48 h) the treatment was finalised by twice washing the plates with PBS. Cells were lysed by two freeze-thaw cycles (− 80 °C). Cellular alkaline phosphatase activity was determined by adding Femto ELISA-AP substrate (200 μL) and optical density measurements taken at 5 and 10 min intervals at a wavelength of 405 nm. Data was interpreted using Graphpad Prism (GraphPad, CA, USA) using the model: dose-response simulation/inhibition, log(agonist/inhibition) vs. response – variable slope (four parameters). For compounds where EC50 > 10,000, an antagonist profile was assumed and the experiment was repeated with the inclusion of progesterone (3 mM) with the library compound. Data shown in the supporting information (Additional file 1: Figure S32).

[2] = In vitro non-radioactive metabolite analysis and clearance in MLM; type: in vitro ADME, mouse
Description: (§1) Microsomal incubations were performed using a Hamilton Microlab Star liquid handling workstation (Hamilton Robotics, Bonaduz, Switzerland). Test compound 2 (final concentration 1 or 10 μM, 1% DMSO) was pre-incubated at 37 °C for 10 min in MLM or HLM (final concentration 1 mg/ml prepared in 10 mM PBS). Reactions were initiated by the addition of NADPH (final concentration 1 mM). Aliquots were removed from each incubation and quenched in 3 volumes of ice-cold MeOH containing internal standard olomoucine (500 nM in MeOH) at − 1, 0, 5, 15, 30 and 60 min. Incubations were conducted in singlicate. […] Terminated incubations were centrifuged at 3700 rpm at 4 °C for 30 min and supernatant taken for analysis. Microsomal incubations were analysed by liquid chromatography-tandem mass spectrometry (LC-MS/MS). This consisted of a Dionex Ultimate 3000 UHPLC system coupled to a ThermoScientific Q Exactive Plus orbitrap mass spectrometer (Thermo Fisher Scientific Inc., Waltham, USA). Chromatographic separation was achieved using an Acquity UPLC HSS T3 column (1.8 μm, 100 × 2.1 mm) (Waters, Elstree, UK) at 50 °C and a binary mobile phase gradient at a flow rate of 0.4 ml/min. Initial LC conditions comprised 10% formic acid (0.1%) in water (A), 90% methanol (B). This was ramped to […] at 12 min. Sample analysis was by positive ion electrospray ionization. The capillary voltage was 3.5 kV. Full MS/dd-MS^2 (full MS scan followed by data dependent MS/MS) and Full MS/AIF (full MS scan followed by all ion fragmentation) workflows were used in combination. Full MS was performed at a resolution of 70,000, AGC target 1 e^6; dd-MS2 at a resolution of 17,5000, AGC target 1 e^5. LC-MS response (peak area of the analyte/peak area of internal standard) was fitted to a nonlinear single exponential model using software GraphPad Prism software (v6.07, GraphPad Software, Inc., La Jolla, USA). Elimination rate constant (k) was determined and intrinsic clearance, CLint, was calculated as CLint = (V.k)/mg protein where V is the incubation volume (μl) and mg protein is the mg microsomal protein in the incubation. Identification of metabolites in microsomal incubations and elucidation of their structures was undertaken with Compound Discoverer software (v2.0.0.303, Thermo Fisher Scientific Inc., Waltham, USA).

[3] = In vitro non-radioactive metabolite analysis and clearance in HLM; type: in vitro ADME, human
Description: as §1

CC1(C)OC(=S)Nc2ccc(-c3cccnc3F)cc21 [Compound 2, 6-(2-fluoropyridin-3-yl)-4,4-dimethyl-1H-benzo[d][1,3]oxazine-2(4H)-thione]
EC50 ([1]; agonist response, 48 h incubation, average of at least n = 3 ± SD): 4.7 ± 0.07 nM | fold more potent than structural isomer 4 ([1]; compound 2 versus 4): ~1000 fold | Metabolite identification by mass spectrometry in MLM ([2]; MLM incubation, LC-MS/MS): conversion of the thiocarbamate into oxocarbamate as the major metabolic pathway and highlighted oxidative defluorination | microsomal CLint ([2]; mouse, mouse liver microsomes, MLM 1 mg/ml, NADPH 1 mM, 37 °C): 1270 µL/min/mg | Metabolite identification by mass spectrometry in HLM ([3]; HLM incubation, LC-MS/MS): conversion of the thiocarbamate into oxocarbamate as the major metabolic pathway and highlighted oxidative defluorination | Clearance, fold slower in HLM than in MLM ([3]; HLM versus MLM): ca. 22 fold | microsomal CLint ([3]; human, human liver microsomes, HLM 1 mg/ml, NADPH 1 mM, 37 °C): 56 µL/min/mg
